Format in all cases: cell-based, human
The test system of assay [1] is VTA-like spheroids. Description: FLIPR calcium activity with Cal6 dye, control compounds / DAMGO (Example 3). Particulars: VTA-like spheroids; for functional response (calcium activity peak parameters) to control compound: recordings 1-, 30-, 60-min after treatment. As to the method: (§1) Viruses and dyes: To assess calcium activity, the calcium dye, Cal6 (Molecular Devices), and genetically encoded calcium indicator, GCaMP6f (Addgene, cat #100836-AAV9) were used. Cal6 was used according to manufacturer's instructions and 10 mL of maintenance media was added to each vial. Two hours before activity was recorded, half of the spheroid media was exchanged for media with Cal6. The plates were covered in foil and placed in the incubator at 37° C. during the 2-hour (hr) incubation period. Since all viruses used were adeno-associated viruses (AAV), they were added to the media on day 7 to allow for 2-weeks expression prior to recording or testing. All viruses were added to the media at 2e5 multiplicity of infection (MOI). GCaMP6f infection occurred via an adeno-associated virus serotype 9 (AAV9) expressed under the CAG promoter for expression in both neurons and astrocytes. Designer receptors exclusively activated by designer drugs (DREADDs) viruses were used to stimulate and inhibit neuronal activity within spheroids. Both viruses were retrograde AAVs expressed under the human Synapsin promoter for expression in neurons and fused with an mCherry fluorophore. The DREADDs viruses either inserted the designer receptor hM4D(Gi), an inhibitory G-protein coupled receptor, or hM3D(Gq), a stimulatory G-protein coupled receptor. Clozapine-N-oxide (CNO, Tocris cat #4936) was suspended in dimethyl sulfoxide (DMSO) and used as the designer drug to activate the DREADDs viruses. CNO was tested at 1 and 10 μM, with data reported from the 1 μM concentration.
(§2) Fluorescent Imaging plate Reader (FLIPR): The FLIPR Penta (Molecular Devices) was used to assess calcium fluorescence across the 384-well plate simultaneously and to observe changes after treatment with compounds. The evening before calcium activity was measured, plates were sealed with parafilm and centrifuged at 1485×g for 2-min to get spheroids to the bottom of the well in a centered position. On the day of recording, the plate used for recording was placed in the read plate position inside of the FLIPR following the 2-hour Cal6 incubation at 37° C. Standard filter sets were used for Cal6 imaging with excitation set at 470-495 and emission at 515-575 nm. Fluorescent image reads were taken every 0.6 seconds for all plates, with exposure time of 0.03 and 50% excitation intensity. Recordings from the initial seven plates consisted of 1000 reads and were 10-min recordings with 2.5 gain, while the final two plates consisted of 500 reads (5-min recordings) with a gain of 2. Baseline recordings were taken across all plates and, if applicable, more recordings were obtained 1-, 30-, 60-, and/or 90-min after compound treatment. In between recordings, plates were wrapped in foil and placed back in the incubator at 37° C.
DAMGO was reconstituted in water at a 1 mM concentration and diluted in media to 20 µM such that spheroids would be treated with a final concentration of 10 μM after the half media exchange. Two aspects of OUD were modeled, chronic treatment along with opioid withdrawal. […]
384 Pin Tool: A 384 well pin tool (Rexroth) was used to transfer compounds simultaneously to the spheroid plate. […] Compound transfer via the 384 well pin tool occurred after the baseline recordings with the fluorescent imaging plate reader (FLIPR). […]

The subject of assay [2] is VTA-like spheroids. Description: FLIPR calcium activity profiling, compound addition (Examples 1-2). Conditions: FLIPR recordings 1-, 30-, 70-min after compound (t1, t30, t70). As to the method: (§3) To examine neuronal activity changes as a response to compound treatment, calcium activity was assessed using a Fluorescent Imaging Plate Reader (FLIPR) Penta (Molecular Devices). FLIPR Calcium 6 Assay kits were purchased from Molecular Devices (PN: R8190). On day of activity profiling, 96-well or 384-well ULA round bottom (black sides, clear bottom) plates containing spheroids were removed from incubator. Fresh FLIPR Calcium 6 dye was prepared by diluting each vial in 10 ml of freshly prepared, phenol-free complete spheroid maturation media and vortexed for 2 minutes. Half of the media was removed from each well (45 μl from 384-well plate wells, 100 ul from 96-well plate wells) and replaced with equal amounts freshly prepared FLIPR Calcium 6 dye, followed by a 2-hour incubation in the dark in a 37 C, 5% CO2 incubator. After 2-hours, plates were removed and kept at room temperature for 10 minutes, then imaged and calcium activity read using the Molecular Devices FLIPR Penta High-Throughput Cellular Screening System. The FLIPR incubator stage was pre-warmed to 37° C. approximately 30 minutes prior to imaging. Standard filter sets were used for Cal6 imaging (excitation 470-495 and emission 515-575 nm). FLIPR recordings were obtained with the camera in normal mode, and settings included: gain was set to 2.5, exposure time to 0.03 seconds, and excitation intensity to 50%. Fluorescent image reads were taken every 0.6 seconds for a total of 1000 reads over a total run time of 10 minutes. Four recordings total were captured: baseline activity, 1-min after compound treatment, 30- and 70-min after compound treatment.
(§4) After baseline activity, cell plates were removed from the FLIPR and transferred to a 384-well pin tool instrument. Prior to compound addition, the pin tool was subjected to 4 wash cycles exposing the pins to water, methanol, and DMSO each time. Compounds, including either “QC compounds” (compounds with known mechanism of action, listed in results) or the mu opioid receptor selective-agonist DAMGO, were transferred from a compound source plate to the 384-well spheroid plate. Immediately after compound transfer, the cell plate was placed back in the FLIPR for the recording that was 1-min after compound transfer to begin. After this 10-min recording, another recording was captured 30-min after compounds were transferred. After the 30-min recording, the plate was again removed from the FLIPR and transferred to the pin tool instrument. During this phase of compound transfer, naloxone was transferred to wells that received DAMGO during the first compound transfer. Following this second compound transfer, the cell plate was placed back in the FLIPR and a final recording was obtained 30-min later, and 70-min after the initial compound transfer.
(§5) The FLIPR software ScreenWorks PeakPro 2.0 was used for the initial analysis of calcium activity using automated peak detection settings. With these settings, average peak statistics over each 10-min recording for each well were exported from PeakPro to Microsoft Excel. ScreenWorks Peak Pro 2.0 software was used to extract 17 activity features describing different aspects of calcium activity profiles. These included peak amplitude (PkA), peak amplitude standard deviation (PkASD), peak count (PkCt), peak rate (measured as peaks per minute, PpM), peak rate SD, peak spacing (PkSp), peak spacing SD (PkSpSD), peak spacing regularity, area under the curve (AUC), AUC SD, peak rise slope, peak rise slope SD, peak rise time (PkRt), peak ride time SD (PkRtSD), peak decay slope, peak decay slope SD, peak decay time (PkDt), and peak decay time SD (PkDtSD). To assess variability of these peak parameters, percent coefficients of variance (CV) were calculated by dividing the standard deviation/mean and multiplying by 100 for each designer spheroid type, and those with % CV's […] 20% were removed from future analysis. […]

The subject of assay [3] is PFC-like spheroids. The description is as above. Particulars: FLIPR recordings 1-, 30-, 70-min after compound (t1, t30, t70). As to the method: as §3, §4, §5
For assay [4], the system named is PFC-like spheroids. Description: FLIPR calcium activity with Cal6 dye, control compounds / DAMGO / AD compounds (Example 3). Particulars: for functional response (calcium activity peak parameters) to control compound: PFC-like spheroids, recordings 1-, 30-, 60-min after treatment; for effect on peak count and peak spacing: 10 μM DAMGO, recording 30-min later, then naloxone. The method, then: as §1, §2
DAMGO was reconstituted in water at a 1 mM concentration and diluted in media to 20 µM such that spheroids would be treated with a final concentration of 10 μM after the half media exchange. Two aspects of OUD were modeled, chronic treatment along with opioid withdrawal. For spheroids subjected to chronic DAMGO treatment, 20 μM DAMGO in maintenance media was added via half media exchange beginning on day 10, with treatments occurring every other day for 10 days, giving a total of five treatments.
384 Pin Tool: A 384 well pin tool (Rexroth) was used to transfer compounds simultaneously to the spheroid plate. Prior to compound transfer, the pin tool went through four wash cycles where pins were rinsed with dimethyl sulfoxide (DMSO), followed by methanol, then deionized (DI) water, to ensure the pins were clean. Compound transfer via the 384 well pin tool occurred after the baseline recordings with the fluorescent imaging plate reader (FLIPR). Here, 60 nL of compound suspended in DMSO was transferred to 60 µL of media in each well, diluting the compounds by 1000-fold and giving a final DMSO concentration of 0.1%.

Experimental findings from US20240141291A1, “FUNCTIONAL BRAIN REGION-SPECIFIC NEURAL SPHEROIDS AND METHODS OF USE” (THE UNITED STATES OF AMERICA, AS REPRESENTED BY THE …, priority 2021, published 2024) are described below.

Values joined by “and” are separate entries in the source; they are usually repeats but may differ in a detail not shown here. Equal values may be shown once. “Also recorded” adds a separate entry of the source.

For `NCc1cc(=O)[nH]o1` [Muscimol], the “functional response (calcium activity peak parameters) to control compound” value with VTA-like spheroids [1] was “complete inhibition of activity that began immediately after treatment and persisted for at least 60-min”; in the assay on PFC-like spheroids [4] it was “complete inhibition of activity that began immediately after treatment and persisted for at least 60-min”. Further, the “effect on calcium activity peak parameters compared to DMSO controls” value with VTA-like spheroids [2] and in the assay on PFC-like spheroids [3] was “total inhibition of calcium activity that lasted throughout the entire recording period” each time.
As for `NC(CCCP(=O)(O)O)C(=O)O` (stereo not drawn) [AP5], the “effect on calcium activity peak parameters compared to DMSO controls” value with VTA-like spheroids [2] and in the assay on PFC-like spheroids [3] was “did not impact calcium activity” each time.
On to `Nc1ccncc1` [4-AP, 4-aminopyradine], for which the “effect on calcium activity peak parameters compared to DMSO controls” value in the assay with VTA-like spheroids [2] is “did not have any impact on PkCt, PkA, PpM, or PkSp at t1, t30, or t70; also recorded: significantly reduced PkDt at t1; also recorded: trend toward statistical significance for increasing the decay slope”; with PFC-like spheroids [3], “significantly increased PkCt 1-min after exposure; also recorded: For the t30 recording, there was a significant increase in peaks per minute (PpM) and the decay slope; also recorded: Significant increases in PkCt and PpM as well as a reduction in PkSp resulted from 4-AP 70-min after exposure”.
Consider `C=CCN1CC[C@]23c4c5ccc(O)c4O[C@H]2C(=O)CC[C@@]3(O)[C@H]1C5` [naloxone], for which the “reversal of deficits induced by chronic opioid treatment” value with VTA-like spheroids [1] (chronic DAMGO pre-treatment) was “reverses deficits induced by chronic opioid treatment in PFC-like but not VTA-like spheroids”. Moreover, the “effect on peak count and peak spacing” value was “those treated with naloxone no longer showed significant differences in these peak parameters compared to DMSO-treated controls; also recorded: reverses deficits induced by chronic opioid treatment in PFC-like but not VTA-like spheroids” in the assay with PFC-like spheroids [4] (PFC-like chronic DAMGO-treated spheroids); “reversed deficits in peak count and spacing in acute DAMGO-treated control spheroids” in the assay on PFC-like spheroids [4] (PFC-like control spheroids).
In the case of `N#Cc1cc2[nH]c(=O)c(=O)[nH]c2cc1[N+](=O)[O-]` [CNQX], the “effect on calcium activity peak parameters compared to DMSO controls” value was “total inhibition of calcium activity during the t1 recording and 30-min after CNQX treatment, PkCt and PpM were significantly increased while PkA, PkSp, and PkDt were all still reduced and had no impact on calcium activity in VTA-like spheroids during the t70 recording” in the assay on VTA-like spheroids [2]; “total inhibition of calcium activity that lasted throughout the entire recording period” with PFC-like spheroids [3]. The “functional response (calcium activity peak parameters) to control compound” value in the assay with PFC-like spheroids [4] is “inhibited all activity in PFC-like spheroids for all three recordings (1-, 30-, and 60-min); also recorded: total inhibition that lasted throughout the 1-hr period”.
In the case of `CCN1CCCC1CNC(=O)c1cc(S(N)(=O)=O)ccc1OC` (stereo not drawn) [Sulpiride], the “functional response (calcium activity peak parameters) to control compound” value was “no changes were observed in measures of peak frequency but increases in peak width and peak decay time were observed” with VTA-like spheroids [1]; “increased peak count and rate while decreasing peak spacing” with PFC-like spheroids [4]. The “effect on calcium activity peak parameters compared to DMSO controls” value is “did not impact calcium activity, though there was a statistical trend toward significantly increasing PkCt 1-min after treatment” in the assay on VTA-like spheroids [2]; “significantly increased PkCt and PpM while decreasing PkSp 70-min after treatment” with PFC-like spheroids [3].
